Results taken from PubChem BioAssay AID248 (DTP/NCI, 2004).
Several values for one entry are separate records, joined by “and”; a condition that tells them apart may be missing. Equal entries are not always repeated. Inconclusive results and toxic doses are left out. Rule as the data show it: active = T/C of 150% or more; inactive = T/C below 125%.

System: L1210 leukemia ip in BDF1 mice, survival T/C
Assay: NCI In Vivo Anticancer Drug Screen. Data for tumor model L1210 Leukemia (intraperitoneal) in B6D2F1 (BDF1) mice
Details: endpoint: mean survival time, higher = longer survival
Summary of the method: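 Each compound was tested against a transplantable tumor grown in mice. The endpoint was survival, with treated animals benchmarked against vehicle controls as a simple ratio.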

[1] = dose: 100.0 mg/kg/injection, schedule: Q01DX009 (ip), vehicle: other
[2] = dose: 200.0 mg/kg/injection, schedule: Q01DX009 (ip), vehicle: other
[3] = dose: 400.0 mg/kg/injection, schedule: Q01DX009 (ip), vehicle: other

Measured: T/C

O=C(NP(=O)(N1CC1)N1CC1)c1cc(I)ccc1I
active: dose: 32.0 mg/kg/injection, schedule: Q01DX009 (ip), vehicle: saline with Tween-80 155 % of control | dose: 32.0 mg/kg/injection, schedule: Q01DX009 (ip), vehicle: saline 162 % of control | dose: 64.0 mg/kg/injection, schedule: Q01DX009 (ip), vehicle: saline 183 % of control | dose: 128.0 mg/kg/injection, schedule: Q04DX003 (ip), vehicle: saline with Tween-80 176 % of control | dose: 128.0 mg/kg/injection, schedule: Q04DX003 (ip), vehicle: saline 151 % of control and 159 % of control | dose: 256.0 mg/kg/injection, schedule: Q04DX003 (ip), vehicle: saline 164 % of control
inactive: dose: 1.0 mg/kg/injection, schedule: Q01DX001 (ip), vehicle: saline with Tween-80 99 % of control | dose: 1.0 mg/kg/injection, schedule: Q01DX001 (ip), vehicle: saline 95 % of control and 98 % of control | dose: 1.0 mg/kg/injection, schedule: Q01DX001 (oral), vehicle: saline with Tween-80 106 % of control | dose: 1.0 mg/kg/injection, schedule: Q01DX001 (oral), vehicle: saline 97 % of control | dose: 1.0 mg/kg/injection, schedule: Q01DX009 (ip), vehicle: saline with Tween-80 103 % of control | dose: 1.0 mg/kg/injection, schedule: Q01DX009 (ip), vehicle: saline 97 % of control | dose: 1.0 mg/kg/injection, schedule: Q04DX003 (ip), vehicle: saline with Tween-80 107 % of control | dose: 1.0 mg/kg/injection, schedule: Q04DX003 (ip), vehicle: saline 104 % of control and 111 % of control | dose: 2.0 mg/kg/injection, schedule: Q01DX001 (ip), vehicle: saline with Tween-80 93 % of control | dose: 2.0 mg/kg/injection, schedule: Q01DX001 (ip), vehicle: saline 100 % of control and 110 % of control | dose: 2.0 mg/kg/injection, schedule: Q01DX001 (oral), vehicle: saline with Tween-80 100 % of control | dose: 2.0 mg/kg/injection, schedule: Q01DX001 (oral), vehicle: saline 94 % of control | dose: 2.0 mg/kg/injection, schedule: Q01DX009 (ip), vehicle: saline with Tween-80 105 % of control | dose: 2.0 mg/kg/injection, schedule: Q04DX003 (ip), vehicle: saline 97 % of control and 111 % of control | dose: 4.0 mg/kg/injection, schedule: Q01DX001 (ip), vehicle: saline with Tween-80 97 % of control | dose: 4.0 mg/kg/injection, schedule: Q01DX001 (ip), vehicle: saline 100 % of control and 108 % of control | dose: 4.0 mg/kg/injection, schedule: Q01DX001 (oral), vehicle: saline with Tween-80 107 % of control | dose: 4.0 mg/kg/injection, schedule: Q01DX001 (oral), vehicle: saline 92 % of control | dose: 4.0 mg/kg/injection, schedule: Q01DX009 (ip), vehicle: saline with Tween-80 101 % of control | dose: 4.0 mg/kg/injection, schedule: Q04DX003 (ip), vehicle: saline with Tween-80 101 % of control | dose: 4.0 mg/kg/injection, schedule: Q04DX003 (ip), vehicle: saline 97 % of control | dose: 8.0 mg/kg/injection, schedule: Q01DX001 (ip), vehicle: saline with Tween-80 101 % of control | dose: 8.0 mg/kg/injection, schedule: Q01DX001 (ip), vehicle: saline 99 % of control and 118 % of control | dose: 8.0 mg/kg/injection, schedule: Q01DX001 (oral), vehicle: saline with Tween-80 101 % of control | dose: 8.0 mg/kg/injection, schedule: Q01DX001 (oral), vehicle: saline 90 % of control | dose: 8.0 mg/kg/injection, schedule: Q01DX009 (ip), vehicle: saline with Tween-80 121 % of control | dose: 8.0 mg/kg/injection, schedule: Q04DX003 (ip), vehicle: saline with Tween-80 115 % of control | dose: 8.0 mg/kg/injection, schedule: Q04DX003 (ip), vehicle: saline 102 % of control | dose: 16.0 mg/kg/injection, schedule: Q01DX001 (ip), vehicle: saline with Tween-80 109 % of control | dose: 16.0 mg/kg/injection, schedule: Q01DX001 (ip), vehicle: saline 100 % of control and 121 % of control | dose: 16.0 mg/kg/injection, schedule: Q01DX001 (oral), vehicle: saline with Tween-80 102 % of control | dose: 16.0 mg/kg/injection, schedule: Q01DX001 (oral), vehicle: saline 97 % of control | dose: 16.0 mg/kg/injection, schedule: Q04DX003 (ip), vehicle: saline 104 % of control | dose: 32.0 mg/kg/injection, schedule: Q01DX001 (ip), vehicle: saline with Tween-80 112 % of control | dose: 32.0 mg/kg/injection, schedule: Q01DX001 (ip), vehicle: saline 99 % of control and 110 % of control | dose: 32.0 mg/kg/injection, schedule: Q01DX001 (oral), vehicle: saline with Tween-80 101 % of control | dose: 32.0 mg/kg/injection, schedule: Q01DX001 (oral), vehicle: saline 96 % of control | dose: 64.0 mg/kg/injection, schedule: Q01DX001 (ip), vehicle: saline with Tween-80 111 % of control | dose: 64.0 mg/kg/injection, schedule: Q01DX001 (ip), vehicle: saline 105 % of control and 116 % of control | dose: 64.0 mg/kg/injection, schedule: Q01DX001 (oral), vehicle: saline with Tween-80 98 % of control | dose: 64.0 mg/kg/injection, schedule: Q01DX001 (oral), vehicle: saline 100 % of control | dose: 64.0 mg/kg/injection, schedule: Q01DX009 (ip), vehicle: saline with Tween-80 112 % of control | dose: 128.0 mg/kg/injection, schedule: Q01DX001 (ip), vehicle: saline with Tween-80 123 % of control | dose: 128.0 mg/kg/injection, schedule: Q01DX001 (ip), vehicle: saline 114 % of control | dose: 128.0 mg/kg/injection, schedule: Q01DX001 (oral), vehicle: saline with Tween-80 109 % of control | dose: 128.0 mg/kg/injection, schedule: Q01DX001 (oral), vehicle: saline 93 % of control | dose: 128.0 mg/kg/injection, schedule: Q01DX009 (ip), vehicle: saline 95 % of control | dose: 256.0 mg/kg/injection, schedule: Q01DX001 (ip), vehicle: saline 124 % of control | dose: 256.0 mg/kg/injection, schedule: Q01DX001 (oral), vehicle: saline 120 % of control | dose: 256.0 mg/kg/injection, schedule: Q04DX003 (ip), vehicle: saline with Tween-80 105 % of control | dose: 512.0 mg/kg/injection, schedule: Q01DX001 (ip), vehicle: saline with Tween-80 99 % of control | dose: 512.0 mg/kg/injection, schedule: Q01DX001 (oral), vehicle: saline 122 % of control | dose: 512.0 mg/kg/injection, schedule: Q04DX003 (ip), vehicle: saline 100 % of control

O=C(NC1CCCCC1)C(=S)NC1CCCCC1
inactive: dose: 100.0 mg/kg/injection, schedule: Q01DX009 (ip), vehicle: Klucel (hydroxypropylcellulose) (HPC) 93 % of control | dose: 200.0 mg/kg/injection, schedule: Q01DX009 (ip), vehicle: Klucel (hydroxypropylcellulose) (HPC) 101 % of control | dose: 400.0 mg/kg/injection, schedule: Q01DX009 (ip), vehicle: Klucel (hydroxypropylcellulose) (HPC) 98 % of control

CN(C)c1ccc(N=Nc2ccc3c(c2)C(=O)c2ccccc2C3=O)cc1
inactive: [1] 104 % of control | [2] 105 % of control | [3] 98 % of control

CCc1ccccc1OC(=O)Nc1ccccc1C
inactive: dose: 100.0 mg/kg/injection, schedule: Q04DX002 (ip), vehicle: Klucel (hydroxypropylcellulose) (HPC) 95 % of control | dose: 200.0 mg/kg/injection, schedule: Q04DX002 (ip), vehicle: Klucel (hydroxypropylcellulose) (HPC) 100 % of control | dose: 400.0 mg/kg/injection, schedule: Q04DX002 (ip), vehicle: Klucel (hydroxypropylcellulose) (HPC) 95 % of control

COc1ccc2c(OC)cccc2c1
inactive: [1] 87 % of control | [2] 91 % of control | [3] 91 % of control

CCSC1OC(CO)C(O)C1Nc1ccc([N+](=O)[O-])cc1[N+](=O)[O-] (centres undefined)
inactive: dose: 50.0 mg/kg/injection, schedule: Q01DX001 (ip), vehicle: carboxymethylcellulose (CMC) 89 % of control | dose: 100.0 mg/kg/injection, schedule: Q01DX001 (ip), vehicle: carboxymethylcellulose (CMC) 94 % of control

CC[C@H](c1ccc(O)cc1)[C@@H](CC)c1ccc(O)cc1
inactive: dose: 62.5 mg/kg/injection, schedule: Q01DX010 (sc), vehicle: steriod suspending solution 104 % of control | dose: 125.0 mg/kg/injection, schedule: Q01DX010 (sc), vehicle: steriod suspending solution 95 % of control | dose: 250.0 mg/kg/injection, schedule: Q01DX010 (sc), vehicle: steriod suspending solution 104 % of control

CCCCOCC(C)O (centres undefined)
inactive: dose: 100.0 mg/kg/injection, schedule: Q04DX003 (ip), vehicle: saline 91 % of control | dose: 200.0 mg/kg/injection, schedule: Q04DX003 (ip), vehicle: saline 96 % of control | dose: 400.0 mg/kg/injection, schedule: Q04DX003 (ip), vehicle: saline 96 % of control
